Laboratory results taken from patent US5856510A, “5-alkenyl and 5-alkynyl indole compounds” (Allelix Biopharmaceuticals Inc., priority 1996, dated 1999).
Read-outs that look alike come from different tables or passages of the source.

Target: T1, 5-HT1D-like receptor (rabbit isolated saphenous vein) (Oryctolagus cuniculus, UniProt P49144)
T1 construct: contracting the rabbit saphenous vein; from tissue; host or cells: rabbit saphenous vein rings, endothelium removed
Test: Agonist Assay: contraction of the rabbit isolated saphenous vein (5-HT1D-like receptor agonist activity)
Assay type: cell-based, rabbit (male New Zealand White)

T1 sequence (P49144 whole entry): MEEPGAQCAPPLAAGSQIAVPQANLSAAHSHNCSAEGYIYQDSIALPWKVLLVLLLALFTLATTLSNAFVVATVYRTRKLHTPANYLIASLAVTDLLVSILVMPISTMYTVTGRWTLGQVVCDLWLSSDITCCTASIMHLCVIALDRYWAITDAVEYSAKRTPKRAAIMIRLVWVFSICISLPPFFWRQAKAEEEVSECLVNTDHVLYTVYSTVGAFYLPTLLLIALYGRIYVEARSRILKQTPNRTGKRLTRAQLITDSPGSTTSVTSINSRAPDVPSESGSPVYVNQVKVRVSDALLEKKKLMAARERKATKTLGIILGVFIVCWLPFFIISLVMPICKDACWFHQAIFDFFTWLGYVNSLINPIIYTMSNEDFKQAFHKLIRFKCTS

Compound C=Cc1ccc2[nH]cc(CCN(C)C)c2c1 [Example 7a, 3-[2-(N,N-Dimethylamino)ethyl]-5-vinyl-1H-indole] has an EC50 of 0.13 µM.
C=Cc1ccc2[nH]cc(CCN3CCCC3)c2c1 [Example 7b, 3-[2-(N-Pyrrolidinyl)ethyl]-5-vinyl-1H-indole] gave an EC50 of 5.8 µM.
With C=Cc1ccc2[nH]cc(C[C@H]3CCCN3C)c2c1 [Example 7c, (R)-3-[(N-Methylpyrrolidin-2-yl)methyl]-5-vinyl-1H-indole] the EC50 was 0.08 µM.
In the case of C=Cc1ccc2[nH]cc(C3CCN(C)C3)c2c1 (stereo not shown) [Example 7d, 3-(N-Methylpyrrolidin-3-yl)-5-vinyl-1H-indole], the EC50 (contraction of rabbit isolated saphenous vein, concentration causing 50% of the maximum contraction effected by the compound, prazosin, idazoxan and indomethacin 1 μM each, 37° C., pH 7.4, read-out: EC50) is reported as 0.18 µM.
